Earlier results, collected in patent US20240398940A1, “NOVEL LIPID NANOPARTICLES FOR DELIVERY OF NUCLEIC ACIDS” (CureVac SE, priority 2021, published 2024).
Read-outs that look alike come from different tables or passages of the source.

Columns and labels:
[1] = in vivo

charge (pH 4)	charge (pH 7)	accumulation in tissue [1]	excretion [1]	Compound
positive charge	neutral charge			Cc1c(C)c2c(c(C)c1OC(=O)CCC(=O)OCCC1CCN(CCSSCCN3CCC(CCOC(=O)CCC(=O)Oc4c(C)c(C)c5c(c4C)CCC(C)(CCCC(C)CCCC(C)CCCC(C)C)O5)CC3)CC1)CCC(C)(CCCC(C)CCCC(C)CCCC(C)C)O2 (stereo not shown) [C23, COATSOME ® SS-EC]
		no significant accumulation in tissue	rapidly excreted by the kidney	poly(2-methyl-2-oxazoline) [PMOZ]
